This is an account of results in patent publication US12503475B2 (Centessa Pharmaceuticals (UK) Limited, priority 2020, dated 2025).

By Emax is commonly meant the maximal effect, on the per cent scale that the assay sets.

The target of the assay is T1, human orexin type 2 receptor (hOX2R) (Homo sapiens, UniProt O43614).
T1 construct: expressed in transfected cells
T1 sequence (O43614 1-444): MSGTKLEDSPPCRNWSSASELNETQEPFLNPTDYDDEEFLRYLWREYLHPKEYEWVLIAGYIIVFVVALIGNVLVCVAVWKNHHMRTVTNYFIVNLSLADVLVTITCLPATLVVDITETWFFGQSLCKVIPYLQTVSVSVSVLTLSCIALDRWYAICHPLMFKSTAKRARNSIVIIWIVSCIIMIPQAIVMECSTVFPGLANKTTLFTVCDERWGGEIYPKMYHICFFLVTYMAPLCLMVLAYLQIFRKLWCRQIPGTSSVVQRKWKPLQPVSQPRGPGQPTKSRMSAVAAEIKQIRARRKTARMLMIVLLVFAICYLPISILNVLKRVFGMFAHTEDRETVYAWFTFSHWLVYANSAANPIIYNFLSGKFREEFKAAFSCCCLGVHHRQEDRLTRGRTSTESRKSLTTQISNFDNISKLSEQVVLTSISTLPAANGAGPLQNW
Briefly: Measurement of orexin type 2 receptor agonist activity (FLIPR calcium fluorescence). It counts as cell-based. Particulars: for EC50: read-out: hOx2 pEC50 (converted); for Emax: CHO, read-out: hOx2 Emax (%). In outline:
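Agonism was read as fluorescence in cells stably expressing human OX2R. E. is the response at 10 μM relative to orexin A as full agonist (100%).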

[1] abbreviates: CHO cells expressing hOX2R, FLIPR calcium fluorescence.

Where two headings read alike, the source gives them in different places.

`COC1(C(=O)N2CC3(CC3)[C@H](NS(=O)(=O)CF)[C@@H]2Cc2cc(F)cc(-c3ccccc3)c2F)CC1` [Compound 404, N-((6S,7S)-6-((2,5-difluoro-[1,1′-biphenyl]-3-yl)methyl)-5-(1-methoxycyclopropane-1-carbonyl)-5-azaspiro[2.4]heptan-7-yl)-1-fluoromethanesulfonamide]: under setting [1], the EC50 was 1 to 10 nM and the Emax was in the range of 90 to 100%.
Taken in the same sequence, the figures for `CCCNC(=O)N1CC2(CC2)[C@H](NS(C)(=O)=O)[C@@H]1Cc1cccc(-c2ccccc2)c1F` [Compound 111, (6S,7S)-6-((2-fluoro-[1,1′-biphenyl]-3-yl)methyl)-7-(methylsulfonamido)-N-propyl-5- .azaspiro[2.4]heptane-5-carboxamide] were 1 to 10 nM and 90 to 100%.
As for `CS(=O)(=O)N[C@@H]1[C@H](Cc2cccc(-c3ccccc3)c2F)N(C(=O)NCCO)CC12CC2` (racemic) [Compound 307, 6-((2-fluoro-[1,1′-biphenyl]-3-yl)methyl)-N-(2-hydroxyethyl)-7-(methylsulfonamido)-5-azaspiro[2.4]heptane-5-carboxamide], under setting [1], the EC50 is 1 to 10 nM and the Emax lay within 90 to 100%.
The like results for `COC1(C(=O)N2CC3(CC3)[C@H](NS(=O)(=O)CF)[C@@H]2Cc2cccc(-c3ccccc3)c2F)CC1` [Compound 180, 1-fluoro-N-((6S,7S)-6-((2-fluoro-[1,1′-biphenyl]-3-yl)methyl)-5-(1-methoxycyclopropane-1-carbonyl)-5-azaspiro[2.4]heptan-7-yl)methanesulfonamide] were, in that order, 1 to 10 nM and 90 to 100%.
The like results for `COC1(CNC(=O)N2CC3(CC3)[C@H](NS(C)(=O)=O)[C@@H]2Cc2cccc(-c3ccccc3)c2F)CC1` [Compound 100, (6S,7S)-6-((2-fluoro-[1,1′-biphenyl]-3-yl)methyl)-N-((1-methoxycyclopropyl)methyl)-7-(methylsulfonamido)-5-azaspiro[2.4]heptane-5-carboxamide] were, in that order, 0.0794 to 1 nM and 90 to 100%.
Taken in the same sequence, the figures for `C[C@H](F)S(=O)(=O)N[C@@H]1[C@H](Cc2cccc(-c3ccccc3)c2F)N(C(=O)[C@H]2CCO2)CC12CC2` [Compound 194, (R)-1-fluoro-N-((6S,7S)-6-((2-fluoro-[1,1′-biphenyl]-3-yl)methyl)-5-((R)-oxetane-2-carbonyl)-5-azaspiro[2.4]heptan-7-yl)ethane-1-sulfonamide] were 1 to 10 nM and 90 to 100%.
Take `C[C@@H](CC#N)NC(=O)N1CC2(CC2)[C@H](NS(C)(=O)=O)[C@@H]1Cc1cccc(-c2ccccc2)c1F` [Compound 318, (6S,7S)-N-((S)-1-cyanopropan-2-yl)-6-((2-fluoro-[1,1′-biphenyl]-3-yl)methyl)-7-(methylsulfonamido)-5-azaspiro[2.4]heptane-5-carboxamide]: under setting [1], the EC50 was 1 to 10 nM and the Emax was in the range of 90 to 100%.
The like results for `CC(C)C(=O)N1CC2(CC2)C(NS(C)(=O)=O)C1Cc1cccc(-c2ccccc2)c1` (racemic) [Compound 15, N-(6-([1,1′-biphenyl]-3-ylmethyl)-5-isobutyryl-5-azaspiro[2.4]heptan-7-yl)methanesulfonamide] were, in that order, 10 to 100 nM and 90 to 100%.
Taken in the same sequence, the figures for `O=C([C@H]1CCO1)N1CC2(CC2)[C@H](NS(=O)(=O)CF)[C@@H]1Cc1cccc(-c2cc(F)ccc2F)c1F` [Compound 169, 1-fluoro-N-((6S,7S)-5-((R)-oxetane-2-carbonyl)-6-((2,2′,5′-trifluoro-[1,1′-biphenyl]-3-yl)methyl)-5-azaspiro[2.4]heptan-7-yl)methanesulfonamide] were 1 to 10 nM and 90 to 100%.
In the case of `C[C@H](F)CNC(=O)N1CC2(CC2)[C@H](NS(=O)(=O)CF)[C@@H]1Cc1cccc(-c2ccccc2)c1F` [Compound 205], under setting [1], the EC50 is 1 to 10 nM and the Emax was 90 to 100%.
Taken in the same sequence, the figures for `O=C([C@H](O)C(F)(F)F)N1CC2(CC2)[C@H](NS(=O)(=O)CF)[C@@H]1Cc1cccc(-c2ccccc2)c1F` [Compound 98, 1-fluoro-N-((6S,7S)-6-((2-fluoro-[1,1′-biphenyl]-3-yl)methyl)-5-((S)-3,3,3-trifluoro-2-hydroxypropanoyl)-5-azaspiro[2.4]heptan-7-yl)methanesulfonamide] were 1 to 10 nM and 90 to 100%.
With `C[C@](O)(C(=O)N1CC2(CC2)[C@H](NS(=O)(=O)CF)[C@@H]1Cc1cccc(-c2ccccc2)c1F)C(F)F` [Compound 234, N-((6S,7S)-5-((S)-3,3-difluoro-2-hydroxy-2-methylpropanoyl)-6-((2-fluoro-[1,1′-biphenyl]-3-yl)methyl)-5-azaspiro[2.4]heptan-7-yl)-1-fluoromethanesulfonamide], the Emax was 90 to 100%. Also, the EC50 under setting [1] is 1 to 10 nM.
Take `[2H]c1c([2H])c([2H])c(-c2cc(F)cc(C[C@H]3[C@@H](NS(C)(=O)=O)C4(CC4)CN3C(=O)[C@H]3CCO3)c2F)c([2H])c1[2H]` [Compound 348, N-((6S,7S)-6-((2,5-difluoro-[1,1′-biphenyl]-3-yl-2′,3′,4′,5′,6′-d5)methyl)-5-((R)-oxetane-2-carbonyl)-5-azaspiro[2.4]heptan-7-yl)methanesulfonamide]: under setting [1], the EC50 is 1 to 10 nM and the Emax was in the range of 90 to 100%.
As for `CS(=O)(=O)N[C@@H]1[C@H](Cc2cccc(-c3cc(F)cc(F)c3)c2F)N(C(=O)[C@H]2CCO2)CC12CC2` [Compound 39, N-((6S,7S)-5-((R)-oxetane-2-carbonyl)-6-((2,3′,5′-trifluoro-[1,1′-biphenyl]-3-yl)methyl)-5-azaspiro[2.4]heptan-7-yl)methanesulfonamide], under setting [1], the EC50 was 1 to 10 nM and the Emax was in the range of 90 to 100%.
The like results for `COC1(C(=O)N2CC3(CC3)[C@H](NS(C)(=O)=O)[C@@H]2Cc2cccc(-c3ccccc3)c2)CC1` [Compound 60, N-((6S,7S)-6-([1,1′-biphenyl]-3-ylmethyl)-5-(1-methoxycyclopropane-1-carbonyl)-5-azaspiro[2.4]heptan-7-yl)methanesulfonamide] were, in that order, 10 to 100 nM and 80 to 90%.
For the molecule `COC1CN(C(=O)N2CC3(CC3)[C@H](NS(=O)(=O)CF)[C@@H]2Cc2cccc(-c3cccc(F)c3)c2F)C1` [Compound 400, N-((6S,7S)-6-((2,3′-difluoro-[1,1′-biphenyl]-3-yl)methyl)-5-(3-methoxyazetidine-1-carbonyl)-5-azaspiro[2.4]heptan-7-yl)-1-fluoromethanesulfonamide], under setting [1], the EC50 was 1 to 10 nM and the Emax lay within 90 to 100%.
Taken in the same sequence, the figures for `CN(C(=O)N1CC2(CC2)[C@H](NS(C)(=O)=O)[C@@H]1Cc1cccc(-c2ccccc2)c1F)[C@H]1CCOC1` [Compound 321, (6S,7S)-6-((2-fluoro-[1,1′-biphenyl]-3-yl)methyl)-N-methyl-7-(methylsulfonamido)-N-((S)-tetrahydrofuran-3-yl)-5-azaspiro[2.4]heptane-5-carboxamide] were 10 to 100 nM and 90 to 100%.
Regarding `CC(C)(O)C(=O)N1CC2(CC2)[C@H](NS(=O)(=O)CF)[C@@H]1Cc1cc(F)cc(-c2cccc(F)c2)c1F` [Compound 210, 1-fluoro-N-((6S,7S)-5-(2-hydroxy-2-methylpropanoyl)-6-((2,3′,5-trifluoro-[1,1′-biphenyl]-3-yl)methyl)-5-azaspiro[2.4]heptan-7-yl)methanesulfonamide], under setting [1], the EC50 was 10 to 100 nM and the Emax lay in the range of 90 to 100%.
